Experimental data reported in US20050250677A1, “Glycopeptide antibiotic derivatives” (priority 2002, published 2005).
Entries after “also recorded” stand apart in the source; their conditions may differ. Read-outs that look alike come from different tables or passages of the source.

Experiments:
[1] = tested on: HIV-2(ROD); experiment: Inhibition of HIV-2 (ROD)-induced cytopathicity (giant cell formation) in CEM cells; type: cell-based
Procedure: (§1) A variety of glycopeptide antibiotic derivatives of vancomycin, eremomycin and teicoplanin including their aglycon derivatives were evaluated for their inhibitory activity against HIV-1 (IIIB) and HIV-2(ROD) in CEM cell cultures.

[2] = tested on: HIV-1 (IIIB); experiment: Inhibition of HIV-1 (IIIB)-induced cytopathicity (giant cell formation) in CEM cells; type: cell-based
Procedure: as §1

[3] = tested on: human lymphocyte Molt4/clone 8; experiment: Cytostatic activity assay, Molt4/clone 8 cells; type: cell-based; conditions: read-out: IC50 Molt4/C8 (compound concentration required to inhibit tumor cell proliferation by 50%)
[4] = tested on: murine leukemia L1210; experiment: Cytostatic activity assay, L1210 cells; type: cell-based; conditions: read-out: IC50 L1210 (compound concentration required to inhibit tumor cell proliferation by 50%)
[5] = tested on: FCV; experiment: Feline corona virus assay in Feline Crandel kidney cells (MTS); type: cell-based
Procedure: Feline Crandel kidney cells were seeded in 96-well microtiter plates at 24,000 cells/well. Then, 24 hrs later, an appropriate inoculum of FCV is added together with 5-fold dilutions of the test compounds. After 4 days, a MTS/PMS solution was added to each well. Following a 90 min incubation period at 37° C., the optical density of the wells was read at 498 nm in a microplate reader.

[6] = tested on: Vero cells; conditions: read-out: CC50 Vero
[7] = tested on: human lymphocyte CEM; experiment: Cytostatic activity assay, CEM cells; type: cell-based; conditions: read-out: IC50 CEM (compound concentration required to inhibit tumor cell proliferation by 50%)
[8] = tested on: SARS virus (strain Frankfurt-1); experiment: microbe, parasite or virus in culture; type: cell-based, human corona (SARS) virus
[9] = tested on: FCK cells
[10] = tested on: HEL cells
[11] = tested on: HEL cells; conditions: read-out: CC50 (HEL), HEL cells
[12] = tested on: CMV; experiment: Anti-CMV assay: virus-induced cytopathicity in HEL cell cultures
[13] = tested on: VZV (wild-type strains); experiment: Anti-VZV assay (wild-type strains): virus-induced cytopathicity in HEL cell cultures; type: cell-based, varicella-zoster virus; conditions: HEL cell cultures
[14] = read-out: EC50 HIV-2 (concentration required to inhibit HIV-induced giant cell formation by 50%), HIV-2, CEM cell cultures
[15] = read-out: EC50 HIV-1 (concentration required to inhibit HIV-induced giant cell formation by 50%), HIV-1, CEM cell cultures
[16] = FCV in FCK cells, read-out: EC50 FCV
[17] = SARS virus in Vero cells, read-out: EC50 SARS virus
[18] = HIV-1 (IIIB), CEM cell cultures, read-out: EC50 against HIV-1
[19] = read-out: EC50 CMV AD-169, CMV strain AD-169, HEL cell cultures
[20] = VZV strain OKA, read-out: EC50 VZV (OKA)
[21] = VZV strain YS, read-out: EC50 VZV (YS)

Row | Compound | EC50 [1, 14] | EC50 [2, 15] | IC50 [3] | IC50 [4] | EC50 [5, 16] | CC50 [6] | IC50 [7] | EC50 [8, 17] | CC50 ([9]; read-out: CC50 FCK, FCK cells) | also measured
1 | NC1C(=O)NC2Cc3ccc(c(Cl)c3)Oc3cc4cc(c3O)Oc3ccc(cc3Cl)C(O)C3NC(=O)C(NC(=O)C4NC(=O)C(NC2=O)c2cc(O)cc(c2)Oc2cc1ccc2O)c1ccc(O)c(c1)-c1c(O)cc(O)cc1C(C(=O)N(C(=O)NC1CCCCC1)C1CCCCC1)NC3=O (centres unmarked) [Compound 167] | 10 ± 2.8 µM | 6 ± 2.6 µM | 132 ± 9 µM | 130 ± 1 µM | 7.7 µM | > 100 µM | 165 ± 34 µM | 47 µM | 62 µM | –
2 | NC1C(=O)NC2Cc3ccc(c(Cl)c3)Oc3cc4cc(c3O)Oc3ccc(cc3Cl)C(O)C3NC(=O)C(NC(=O)C4NC(=O)C(NC2=O)c2cc(O)cc(c2)Oc2cc1ccc2O)c1ccc(O)c(c1)-c1c(O)cc(O)cc1C(C(=O)O)NC3=O (centres unmarked) [Compound 159] | – | – | – | – | 9.9 µM | > 100 µM | – | 28 µM | 85 µM | –
3 | CCCCCCCCCCCCNCc1c(O)cc2c(c1O)-c1cc(ccc1O)C1NC(=O)C3NC(=O)C(CC(N)=O)NC(=O)C(NC(=O)C(CC(C)C)NC)C(O)c4ccc(c(Cl)c4)Oc4cc3cc(c4OC3OC(CO)C(O)C(O)C3OC3CC(C)(N)C(O)C(C)O3)Oc3ccc(cc3)C(OC3CC(C)(N)C(O)C(C)O3)C(NC1=O)C(=O)NC2C(=O)O (centres unmarked) [Compound 64] | – | – | – | – | 8.2 µM | > 100 µM | – | 31 µM | 75 µM | activity against FCV [5]: active
4 | O=C(NC1C(=O)NC2Cc3ccc(c(Cl)c3)Oc3cc4cc(c3O)Oc3ccc(cc3Cl)C(O)C3NC(=O)C(NC(=O)C4NC(=O)C(NC2=O)c2cc(O)cc(c2)Oc2cc1ccc2O)c1ccc(O)c(c1)-c1c(O)cc(O)cc1C(C(=O)O)NC3=O)C(=O)c1c[nH]c2ccccc12 (centres unmarked) [Compound 163] | 15 µM | 10 µM | – | – | 2.2 µM | > 100 µM | – | 26 µM | 63 µM | –
5 | CCCCc1ccc(CN2CCN(Cc3c(O)cc4c(c3O)-c3cc(ccc3O)C3NC(=O)C5NC(=O)C(CC(N)=O)NC(=O)C(NC(=O)C(CC(C)C)NC)C(O)c6ccc(c(Cl)c6)Oc6cc5cc(c6OC5OC(CO)C(O)C(O)C5OC5CC(C)(N)C(O)C(C)O5)Oc5ccc(cc5)C(OC5CC(C)(N)C(O)C(C)O5)C(NC3=O)C(=O)NC4C(=O)NC)CC2)cc1 (centres unmarked) [Compound 5] | > 10 µM | – | 17 ± 3 µM | 24 ± 0.4 µM | 5.4 µM | 54 µM | 40 ± 4 µM | 13 µM | 28 µM | EC50 [2, 18]: 0.43 µM; activity against FCV [5]: active; also recorded: pronounced activity
6 | NC1C(=O)NC2Cc3ccc(c(Cl)c3)Oc3cc4cc(c3O)Oc3ccc(cc3Cl)C(O)C3NC(=O)C(NC(=O)C4NC(=O)C(NC2=O)c2cc(O)cc(c2)Oc2cc1ccc2O)c1ccc(O)c(c1)-c1c(O)cc(O)cc1C(C(=O)NC1CC2CCC1C2)NC3=O (centres unmarked) [Compound 162] | 11 µM | 4.5 µM | – | – | 4.7 µM | > 100 µM | – | 22 µM | ≥ 100 µM | –
7 | COC(=O)C1NC(=O)C2NC(=O)C(NC(=O)C(N)c3cc(Oc4ccc(CC(NC(=O)OCc5ccccc5)C(=O)O)cc4Cl)c(O)c(c3)Oc3ccc(cc3Cl)C2O)c2ccc(O)c(c2)-c2c1cc(O)c(CNC1C3CC4CC(C3)CC1C4)c2O (centres unmarked) [Compound 54] | 37 ± 18 µM | 17 ± 3.5 µM | > 250 µM | 181 ± 4 µM | 19 µM | > 100 µM | > 250 µM | 47 µM | – | CC50 [9]: > 50 µM
8 | CCCCc1ccc(CN2CCN(Cc3c(O)cc4c(c3O)-c3cc(ccc3O)C3NC(=O)C5NC(=O)C(CC(N)=O)NC(=O)C(NC(=O)C(CC(C)C)NC)C(O)c6ccc(c(Cl)c6)Oc6cc5cc(c6OC5OC(CO)C(O)C(O)C5OC5CC(C)(N)C(O)C(C)O5)Oc5ccc(cc5Cl)C(O)C(NC3=O)C(=O)NC4C(=O)O)CC2)cc1 (centres unmarked) [Compound 1] | 22 ± 3.5 µM | 12 ± 3.5 µM | > 100 µM | 53 ± 9 µM | 30 µM | > 100 µM | > 100 µM | 43 µM | > 50 µM | EC50 [2, 18]: 5.5 µM; EC50 ([5]; read-out: EC50 against FCV): 30 to 43 µM; EC50 ([8]; read-out: EC50 against SARS virus): 30 to 43 µM
9 | NC1C(=O)NC2Cc3ccc(c(Cl)c3)Oc3cc4cc(c3O)Oc3ccc(cc3Cl)C(O)C3NC(=O)C(NC(=O)C4NC(=O)C(NC2=O)c2cc(O)cc(c2)Oc2cc1ccc2O)c1ccc(O)c(c1)-c1c(O)cc(O)cc1C(C(=O)NCC12CC4CC(CC(C4)C1)C2)NC3=O (centres unmarked) [Compound 166] | 7 µM | 1.8 ± 0.58 µM | 112 ± 2 µM | 91 ± 2 µM | 8.5 µM | > 100 µM | 125 ± 30 µM | 31 µM | 49 µM | –
10 | NC1C(=O)NC2Cc3ccc(c(Cl)c3)Oc3cc4cc(c3O)Oc3ccc(cc3Cl)C(O)C3NC(=O)C(NC(=O)C4NC(=O)C(NC2=O)c2cc(O)cc(c2)Oc2cc1ccc2O)c1ccc(O)c(c1)-c1c(O)cc(O)cc1C(C(=O)NCc1ccc(F)cc1)NC3=O (centres unmarked) [Compound 165] | 30 ± 7.1 µM | 9 ± 5.3 µM | ≥ 250 µM | 240 ± 15 µM | 11 µM | > 100 µM | > 250 µM | 26 µM | 80 µM | –
11 | NC1Cc2ccc(c(Cl)c2)Oc2cc3cc(c2O)Oc2ccc(cc2Cl)C(O)C2NC(=O)C(NC(=O)C3NC(=O)C(c3cc(O)cc(Oc4cc(C5NC(=S)N(c6ccccc6)C5=O)ccc4O)c3)NC1=O)c1ccc(O)c(c1)-c1c(cc(O)c(CNC3C4CC5CC(C4)CC3C5)c1O)C(C(=O)O)NC2=O (centres unmarked) [Compound 55] | – | – | ≥ 250 µM | 73 ± 24 µM | 22 µM | > 100 µM | 242 ± 11 µM | 31 µM | – | EC50 ([1]; HIV-2(ROD), CEM cell cultures, read-out: EC50 against HIV-2): 17 µM; EC50 [2, 18]: 13 µM; CC50 [9]: > 100 µM
12 | CC(NC(=O)C1NC(=O)C2NC(=O)C(NC(=O)C3NC(=O)C4NC(=O)C(Cc5ccc(c(Cl)c5)Oc5cc3cc(c5O)Oc3ccc(cc3Cl)C2O)NC(=O)C(N)c2ccc(O)c(c2)Oc2cc(O)cc4c2)c2ccc(O)c(c2)-c2c(O)cc(O)cc21)C12CC3CC(CC(C3)C1)C2 (centres unmarked) [Compound 160] | 7.5 ± 0.7 µM | 3.3 ± 1.4 µM | 97 ± 10 µM | 92 ± 5 µM | 4.5 µM | > 100 µM | 106 µM | 27 µM | 56 µM | –
13 | CCCCCCCCCC[N+](C)(C)CCCNCc1c(O)cc2c(c1O)-c1cc(ccc1O)C1NC(=O)C3NC(=O)C4NC(=O)C(Cc5ccc(c(Cl)c5)Oc5cc3cc(c5O)Oc3ccc(cc3Cl)C(O)C(NC1=O)C(=O)NC2C(=O)NCCC[N+](C)(C)CCCCCCCCCC)NC(=O)C(N)c1ccc(O)c(c1)Oc1cc(O)cc4c1 (centres unmarked) [Compound 37] | 4.3 ± 0.58 µM | 1.6 ± 0.58 µM | 19 ± 12 µM | 12 ± 2 µM | – | – | 9.4 ± 1.9 µM | – | – | MTC (HEL) ([10]; anti-CMV table): ≧2-20 μM; MTC (HEL) ([10]; anti-VZV table): ≧2-20 μM; CC50 ([11]; anti-CMV table): 43 µM; CC50 ([11]; anti-VZV table): 43 µM; EC50 [12, 19]: > 5 µM; EC50 ([12]; read-out: EC50 CMV Davis, CMV strain Davis, HEL cell cultures): 3.5 µM; EC50 [13, 20]: 1.5 µM; EC50 [13, 21]: > 2 µM
14 | NC1C(=O)NC2Cc3ccc(c(Cl)c3)Oc3cc4cc(c3O)Oc3ccc(cc3Cl)C(O)C3NC(=O)C(NC(=O)C4NC(=O)C(NC2=O)c2cc(O)cc(c2)Oc2cc1ccc2O)c1ccc(O)c(c1)-c1c(O)cc(O)cc1C(C(=O)N1CCN(Cc2ccc4ccccc4c2)CC1)NC3=O (centres unmarked) [Compound 25] | 5 µM | 2.1 ± 1.3 µM | 47 ± 4 µM | 175 ± 44 µM | – | – | 113 ± 28 µM | – | – | MTC (HEL) ([10]; anti-CMV table): 20 to 200 µM; MTC (HEL) ([10]; anti-VZV table): 20 to 200 µM; CC50 ([11]; anti-CMV table): > 50 µM; CC50 ([11]; anti-VZV table): > 50 µM; anti-CMV activity [12]: anti-CMV activity; EC50 [12, 19]: 30 µM; EC50 [13, 20]: 1 µM; EC50 [13, 21]: 0.6 µM
15 | CNC(CC(C)C)C(=O)NC1C(=O)NC(CC(N)=O)C(=O)NC2C(=O)NC3C(=O)NC(C(=O)NC(C(=O)N(C(=O)NC4CCCCC4)C4CCCCC4)c4cc(O)cc(O)c4-c4cc3ccc4O)C(O)c3ccc(cc3)Oc3cc2cc(c3O)Oc2ccc(cc2Cl)C1O (centres unmarked) [Compound 102] | 32.5 ± 3.5 µM | 7.5 ± 4.8 µM | > 250 µM | > 250 µM | – | > 100 µM | > 250 µM | 68 µM | > 100 µM | –
